Structures are written as SMILES.

The results in this text go back to patent publication US20030203388A1, “Method for determining genotoxicity” (Pfizer Inc., priority 2002, published 2003).

The test system of data set [1] is GADD45β (X54149), GADD45 (U00937), AV138783, AI847051, AF055638, AI461837. The data set is described as follows: gene expression analysis (Affymetrix mouse microarray chip U74). Format: cell-based. The settings on record: L5178Y cells treated four hours. As for the experimental part: Mouse lymphoma cell line L5178Y (ATCC No. CRL 9518, ATCC) were cultivated in RPMI medium (Invitrogen Life Technologies, Inc., Carlsbad, Calif.) supplemented with 10% fetal bovine serum and antibiotics penicillin and streptomycin at 37° C. Cells from exponentially growing cultures were seeded at a concentration 3×10^5 cells/ml and incubated for 24 hours and maintained below 1×10^6 cells/ml. […] After the treatment, the cells were washed in PBS (Invitrogen Life Technologies, Inc., Carlsbad, Calif.). Half of the cells where then immediately frozen and stored at −80° C. prior to gene expression analysis, as described in Example 2 below. The other half was allowed to recover in a fresh growth medium for 20 hours. Cell viability was determined based on a cell count. Cell viability results appear in FIG. 1 and FIG. 2 as a ratio between treated versus vehicle control. […]
Gene expression was measured using Affymetrix GeneChip® technology (Affymetrix, Inc., Santa Clara, Calif.) using standard protocols available from Affymetrix (see, GeneChip® Expression Analysis, Technical Manual, Rev. 2 (2001), Affymetrix, Inc., available at http://www.affymetrix.com/pdf/expression_manual.pdf). […] The hybridized chips were scanned using a Hewlett Packard GeneArray™ Scanner, (Hewlett Packard Company, Palo Alto, Calif.) and the resulting data were evaluated using Affymetrix Microarray suite software (Affymetrix). […]

For a further data set, the system named is L5178Y cells. The experiment in a line: in vitro micronucleus assay. Format: cell-based, mouse. The settings on record: L5178Y cells treated four hours, 20 hours recovery; sodium chloride at high concentrations.

Method for L5178Y cells: Mouse lymphoma cell line L5178Y (ATCC No. CRL 9518, ATCC) were cultivated in RPMI medium (Invitrogen Life Technologies, Inc., Carlsbad, Calif.) supplemented with 10% fetal bovine serum and antibiotics penicillin and streptomycin at 37° C. Cells from exponentially growing cultures were seeded at a concentration 3×10^5 cells/ml and incubated for 24 hours and maintained below 1×10^6 cells/ml. […] After the treatment, the cells were washed in PBS (Invitrogen Life Technologies, Inc., Carlsbad, Calif.). […] The other half was allowed to recover in a fresh growth medium for 20 hours. Cell viability was determined based on a cell count. […] The cells were then harvested for use in the in vitro micronucleus assay of Example 3 below.
Treated cells prepared according to Example 1 were attached to glass slides by dropping them onto the glass slides using a pipette after hypotonic treatment with 75 mM KCl (Sigma-Aldrich Corp., St Louis, Mo.) and fixation with 3:1 (v/v) MeOH:acetic acid (JT Baker, Inc., Phillipsburg, N.J.). The cells were then stained using 31.25 μg/ml solution of acridine orange (Molecular Probes, Inc., Eugene, Oreg.).
Micronuclei were counted using a Axiokop 2 fluorescent microscopy (Carl Zeiss Microlmaging, Inc., Thornwood, N.Y.).

With `N.N.[Cl][Pt][Cl]` [cisplatin], the “expression of GADD45β (X54149) and GADD45 (U00937)” value in data set [1] was “increased expression”.
Consider `[Cl-].[Na+]` [sodium chloride], for which the “level of expression of these genes (GADD45β, GADD45, AV138783, AI847051, AF055638, AI461837)” value in data set [1] is recorded as “no effect”. Moreover, the “genotoxic stress, as demonstrated using a micronucleus assay” value with L5178Y cells is listed as “show evidence of genotoxic stress”.
